From US9173879B2, “Crystalline forms of (S)-7-([1,2,4]triazolo[1,5-a ]pyridin-6-yl)-4-(3,4-dichlorophenyl)-1,2,3,4-tetrahydroisoquinoline and use thereof” (Bristol-Myers Squibb Company, priority 2009, dated 2015)
pIC50: −log10 of the molar value. Counter-ions that a name gives are not always drawn.

What was measured:
NET = assay: Occupancy assay, ex vivo binding in brain tissue, NET; details: dose 1 mg/kg, time point 3 hour
From the text: (§1) The general procedure for brain tissue collection and transporter occupancy assessment is briefly described as follows. Mice were sacrificed by asphyxiation in CO2, rats by decapitation and dogs by IV injection of euthanasia solution. For mice and rats, after the brains were removed from the skull, the forebrain tissue (removal of the brainstem and cerebellum) was used for SERT, NET, and DAT occupancy assessment. In dogs, the striatum was dissected for DAT occupancy and the remaining forebrain tissue (without the striatum, brainstem, and cerebellum) was used for SERT and NET occupancy assessment. The brain tissues were frozen in chilled isopentane and stored at −80° C. until homogenization.
(§2) The brain tissues were thawed and then homogenized using a polytron homogenizer (Kinematica). Sample aliquots were frozen immediately and stored at −80° C. Protein content was measured for each sample using a Coomassie protein assay kit (Pierce).
(§3) On the day of ex vivo binding for occupancy assessment, frozen sample aliquots were thawed and needle homogenized, and 100 μg of the tissue was incubated for SERT, NET, and DAT binding under assay conditions summarized in Table 1. […] Radioligand was measured using a Wallac Microbeta liquid scintillation counter.
(§4) The specific binding was calculated by subtracting the value of the non-specific binding from that of the total binding in each sample. […]

hNET = hNET (Homo sapiens (Human), UniProt P23975); assay: NET radioligand binding assay ([3H]nisoxetine, HEK-293 membranes)
Procedure: (§5) Recombinant HEK-293 cells expressing either the hSERT, hDAT, or hNET proteins were harvested from T-175 flasks as follows. The medium was removed from the flasks and the cells rinsed with HBSS without Ca and without Mg. The cells were then incubated for 5-10 minutes in 10 mM Tris-Cl, pH 7.5, 5 mM EDTA before the cells were lifted with a combination of pipetting and scraping, as needed. The cell suspension was collected into centrifuge bottles and homogenized for 30 seconds with a Polytron homogenizer. The suspension was centrifuged for 30 minutes at 32,000×g, 4° C. The supernatant was decanted and the pellet resuspended and homogenized in 50 mM Tris-Cl, pH 7.5, 1 mM EDTA for 10 seconds. […]
Compounds were dissolved in 100% DMSO at a concentration 100 times the desired highest assay concentration, serially diluted 1:3 in 100% DMSO, and 1.0 μl/well of each solution was dispensed to a Nunc polypropylene, round bottom, 384-well plate. […] The plates were air-dried overnight, 12 μl/well of MicroScint scintillation fluid added, and the plates counted in a Trilux.
(§6) The raw data was normalized to percent inhibition using control wells defining 0% (DMSO only) and 100% (selective inhibitor) inhibition which were run on each plate. […] The radioligand concentration chosen for each assay corresponds to the Kd concentration determined through saturation binding analysis for each assay.

hDAT = hDAT (Homo sapiens (Human), UniProt Q01959); assay: DAT radioligand binding assay ([125I]RTI-55, HEK-293 membranes)
Procedure: as §5
Compounds were dissolved in 100% DMSO at a concentration 100 times the desired highest assay concentration, serially diluted 1:3 in 100% DMSO, and 0.4 μl/well of each solution was dispensed to a Nunc polypropylene, round bottom, 384-well plate. […] The plates were air-dried overnight, 12 μl/well of MicroScint scintillation fluid added, and the plates counted in a Trilux.
as §6

SERT = assay: Occupancy assay, ex vivo binding in brain tissue, SERT; details: dose 1 mg/kg, time point 3 hour
From the text: as §1, §2, §3, §4

hSERT = hSERT (Homo sapiens (Human), UniProt P31645); assay: SERT radioligand binding assay ([125I]RTI-55, HEK-293 membranes)
Procedure: as §5, with “seconds. The suspension was then centrifuged again for 30 minutes at 32,000×g, 4° C. The supernatant was decanted and the pellet resuspended in 50 mM Tris-Cl, pH 7.5, 1 mM EDTA and briefly homogenized. A Bradford assay (Bio-rad) was performed and the membrane preparation diluted to 2 mg/ml with 50 mM Tris-Cl, pH 7.5, 1 mM EDTA.” for “seconds.”
Compounds were dissolved in 100% DMSO at a concentration 100 times the desired highest assay concentration, serially diluted 1:3 in 100% DMSO, and 0.4 μl/well of each solution was dispensed to a Nunc polypropylene, round bottom, 384-well plate. […] The plates were air-dried overnight, 12 μl/well of MicroScint scintillation fluid added, and the plates counted in a Trilux. […]

DAT = assay: Occupancy assay, ex vivo binding in brain tissue, DAT; details: dose 1 mg/kg, time point 3 hour
From the text: as §1, §2, §3, §4

[1] = Mouse tail suspension assay; assay type: in vivo; details: male Swiss Webster mice, acute administration
Procedure: Male Swiss Webster mice were housed 3-4 per cage in rooms maintained at a constant temperature (21-23° C.) and humidity (50±10%) on a 12-hour light/dark cycle. Animals had ad libitum access to water and food throughout studies. On the day of testing, they were brought into the testing room and allowed to acclimate for 1 hour. To begin testing, the tail was attached to a piece of tape which was then attached to a hook on the ceiling of a sound-attenuated chamber. Immobility was automatically recorded using the Med Associates software. Compounds were administered acutely at a fixed pretreatment interval before session.

Chain of hNET (P23975 whole entry): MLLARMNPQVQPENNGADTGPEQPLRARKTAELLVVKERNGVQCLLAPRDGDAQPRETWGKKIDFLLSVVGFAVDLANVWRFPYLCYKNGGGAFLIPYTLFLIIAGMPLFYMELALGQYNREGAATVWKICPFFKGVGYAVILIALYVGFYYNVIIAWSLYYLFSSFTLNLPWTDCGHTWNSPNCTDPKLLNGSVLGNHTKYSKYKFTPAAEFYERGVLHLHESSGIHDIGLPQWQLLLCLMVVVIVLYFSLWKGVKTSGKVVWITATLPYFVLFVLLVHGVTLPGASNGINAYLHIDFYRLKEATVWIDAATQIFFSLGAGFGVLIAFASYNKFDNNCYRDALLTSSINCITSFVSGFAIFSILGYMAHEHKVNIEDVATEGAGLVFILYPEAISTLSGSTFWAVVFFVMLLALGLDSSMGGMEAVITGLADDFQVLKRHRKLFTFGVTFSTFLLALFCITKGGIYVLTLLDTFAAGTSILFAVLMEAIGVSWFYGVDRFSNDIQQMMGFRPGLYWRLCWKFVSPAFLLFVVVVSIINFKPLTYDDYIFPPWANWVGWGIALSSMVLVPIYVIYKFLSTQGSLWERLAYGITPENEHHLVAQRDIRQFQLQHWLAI
Chain of hDAT (Q01959 whole entry): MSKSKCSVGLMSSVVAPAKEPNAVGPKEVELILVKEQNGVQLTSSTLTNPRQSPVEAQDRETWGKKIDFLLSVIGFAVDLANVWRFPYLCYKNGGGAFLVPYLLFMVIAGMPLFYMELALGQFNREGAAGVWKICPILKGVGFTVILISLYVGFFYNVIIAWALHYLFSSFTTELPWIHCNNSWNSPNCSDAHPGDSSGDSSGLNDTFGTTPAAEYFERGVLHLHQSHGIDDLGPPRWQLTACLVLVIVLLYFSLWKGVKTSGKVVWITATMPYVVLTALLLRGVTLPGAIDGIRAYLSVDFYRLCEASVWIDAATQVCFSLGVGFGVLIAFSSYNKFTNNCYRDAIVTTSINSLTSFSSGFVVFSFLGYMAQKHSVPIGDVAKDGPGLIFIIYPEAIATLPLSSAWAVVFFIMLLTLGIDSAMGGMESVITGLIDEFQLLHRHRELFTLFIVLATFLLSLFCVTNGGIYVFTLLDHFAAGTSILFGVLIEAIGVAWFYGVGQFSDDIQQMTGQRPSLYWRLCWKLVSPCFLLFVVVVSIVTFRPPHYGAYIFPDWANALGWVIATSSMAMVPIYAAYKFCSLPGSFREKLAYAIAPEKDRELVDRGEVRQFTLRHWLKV

Compound | NET Occupancy % (NET) | pIC50 (hNET) | pIC50 (hDAT) | SERT Occupancy % (SERT) | pIC50 (hSERT) | DAT Occupancy % (DAT) | minimum effective dose in the mouse tail suspension study [1]
Clc1ccc(C2CNCc3cc(-c4ccc5ncnn5c4)ccc32)cc1Cl (single isomer, unassigned; enantiomer 7) [Example 1 (−)-enantiomer, 7-([1,2,4]triazolo[1,5-a]pyridin-6-yl)-4-(3,4-dichlorophenyl)-1,2,3,4-tetrahydroisoquinoline] | 33% | 8.32 | 6.98 | 41% | 8.38 | 30% | 
Clc1ccc(C2CNCc3cc(-c4ccc5ncnn5c4)ccc32)cc1Cl (single isomer, unassigned; (+)) [Example 1 (+)-enantiomer, (+)-7-([1,2,4]triazolo[1,5-a]pyridin-6-yl)-4-(3,4-dichlorophenyl)-1,2,3,4-tetrahydroisoquinoline, L-tartrate salt] | 11% |  |  | 75% |  | 26% | 10 mg/kg
